ChEMBL document CHEMBL3885861, “Open TG-GATES”

Organism: Rattus norvegicus
Assay: Open TG-GATES - Regimen: Single
Assay type: toxicity, organism-based, Sprague-Dawley
Set-up: regimen Single, gender Male, age 6 weeks
Details: in vivo, po, 250 mg/kg, route gavage, dose level Middle; for APTT / Bas / Eos / Fbg / Hb / Ht / Lym / MCH / MCHC / MCV / Mono / Neu / PT / Plat / RBC / Ret / WBC: tissue Blood; for KIDNEY_L / KIDNEY_R / KIDNEY_TOTAL: tissue Kidney; for LIVER: tissue Liver; for A/G / ALP / ALT / AST / BUN / CRE / Ca / Cl / DBIL / GLC / IP / K / LDH / Na / PL / RALB / TBIL / TC / TG / TP / gamma-GTP: tissue Plasma

SMILES: CN(C/C=C/C#CC(C)(C)C)Cc1cccc2ccccc12 [TERBINAFINE]
- TERMINAL_BW (3 h): 225.8 g
- APTT (3 h): 20 s
- Bas (3 h): 0.6%
- Eos (3 h): 0.8%
- Fbg (3 h): 215.8 mg/dL
- Hb (3 h): 13.2 g/dL
- Ht (3 h): 39.2%
- Lym (3 h): 79.4%
- MCH (3 h): 21.8 pg
- MCHC (3 h): 33.7%
- MCV (3 h): 64.7 fL
- Mono (3 h): 2.2%
- Neu (3 h): 16.6%
- PT (3 h): 12.2 s
- Plat (3 h): 125.2 x10_4/uL
- RBC (3 h): 606.8 x10_4/ul
- Ret (3 h): 7.2%
- WBC (3 h): 90.5 x10_2/uL
- KIDNEY_L (3 h): 1 g
- KIDNEY_R (3 h): 1 g
- KIDNEY_TOTAL (3 h): 2 g
- LIVER (3 h): 10.4 g
- A/G (3 h): 1.7
- ALP (3 h): 909.4 IU/L
- ALT (3 h): 42.4 IU/L
- AST (3 h): 72.8 IU/L
- BUN (3 h): 12 mg/dL
- CRE (3 h): 0.4 mg/dL
- Ca (3 h): 10.6 mg/dL
- Cl (3 h): 103.6 meq/L
- DBIL (3 h): 0.084 mg/dL
- GLC (3 h): 213 mg/dL
- IP (3 h): 9.1 mg/dL
- K (3 h): 3.9 meq/L
- LDH (3 h): 166.8 IU/L
- Na (3 h): 141.4 meq/L
- PL (3 h): 123.8 mg/dL
- RALB (3 h): 3.4 g/dL
- TBIL (3 h): 0.1 mg/dL
- TC (3 h): 65 mg/dL
- TG (3 h): 43.8 mg/dL
- TP (3 h): 5.4 g/dL
- gamma-GTP (3 h): 1 IU/L
- TERMINAL_BW (6 h): 221.8 g
- APTT (6 h): 18.1 s
- Bas (6 h): 0.4%
- Eos (6 h): 0.8%
- Fbg (6 h): 220.6 mg/dL
- Hb (6 h): 13.3 g/dL
- Ht (6 h): 39.5%
- Lym (6 h): 74%
- MCH (6 h): 21.5 pg
- MCHC (6 h): 33.7%
- MCV (6 h): 64 fL
- Mono (6 h): 2.4%
- Neu (6 h): 22.2%
- PT (6 h): 12.3 s
- Plat (6 h): 110.3 x10_4/uL
- RBC (6 h): 617.4 x10_4/ul
- Ret (6 h): 6.8%
- WBC (6 h): 90.7 x10_2/uL
- KIDNEY_L (6 h): 1 g
- KIDNEY_R (6 h): 1 g
- KIDNEY_TOTAL (6 h): 2 g
- LIVER (6 h): 9.6 g
- A/G (6 h): 1.8
- ALP (6 h): 842.8 IU/L
- ALT (6 h): 36 IU/L
- AST (6 h): 70.6 IU/L
- BUN (6 h): 11.4 mg/dL
- CRE (6 h): 0.4 mg/dL
- Ca (6 h): 10.6 mg/dL
- Cl (6 h): 102.8 meq/L
- DBIL (6 h): 0.086 mg/dL
- GLC (6 h): 204 mg/dL
- IP (6 h): 9.7 mg/dL
- K (6 h): 4 meq/L
- LDH (6 h): 156 IU/L
- Na (6 h): 141.4 meq/L
- PL (6 h): 132.2 mg/dL
- RALB (6 h): 3.5 g/dL
- TBIL (6 h): 0.2 mg/dL
- TC (6 h): 71.8 mg/dL
- TG (6 h): 35.2 mg/dL
- TP (6 h): 5.4 g/dL
- gamma-GTP (6 h): 1 IU/L
- TERMINAL_BW (9 h): 220.9 g
- APTT (9 h): 18.2 s
- Bas (9 h): 0.6%
- Eos (9 h): 1%
- Fbg (9 h): 211.6 mg/dL
- Hb (9 h): 12.8 g/dL
- Ht (9 h): 38.5%
- Lym (9 h): 77.8%
- MCH (9 h): 20.8 pg
- MCHC (9 h): 33.3%
- MCV (9 h): 62.3 fL
- Mono (9 h): 2.4%
- Neu (9 h): 18.2%
- PT (9 h): 12.5 s
- Plat (9 h): 114.8 x10_4/uL
- RBC (9 h): 618 x10_4/ul
- Ret (9 h): 6.3%
- WBC (9 h): 74.3 x10_2/uL
- KIDNEY_L (9 h): 1 g
- KIDNEY_R (9 h): 1 g
- KIDNEY_TOTAL (9 h): 2 g
- LIVER (9 h): 9.1 g
- A/G (9 h): 1.6
- ALP (9 h): 845 IU/L
- ALT (9 h): 31.4 IU/L
- AST (9 h): 67.6 IU/L
- BUN (9 h): 12 mg/dL
- CRE (9 h): 0.4 mg/dL
- Ca (9 h): 10.3 mg/dL
- Cl (9 h): 103.4 meq/L
- DBIL (9 h): 0.074 mg/dL
- GLC (9 h): 198.2 mg/dL
- IP (9 h): 10.8 mg/dL
- K (9 h): 4.1 meq/L
- LDH (9 h): 153 IU/L
- Na (9 h): 141.8 meq/L
- PL (9 h): 122 mg/dL
- RALB (9 h): 3.4 g/dL
- TBIL (9 h): 0.1 mg/dL
- TC (9 h): 64 mg/dL
- TG (9 h): 26.6 mg/dL
- TP (9 h): 5.5 g/dL
- gamma-GTP (9 h): 1.4 IU/L
- TERMINAL_BW (24 h): 237.1 g
- APTT (24 h): 18.5 s
- Bas (24 h): 0.6%
- Eos (24 h): 1%
- Fbg (24 h): 223.8 mg/dL
- Hb (24 h): 13.4 g/dL
- Ht (24 h): 39.8%
- Lym (24 h): 79.2%
- MCH (24 h): 21.4 pg
- MCHC (24 h): 33.8%
- MCV (24 h): 63.3 fL
- Mono (24 h): 3.2%
- Neu (24 h): 15.6%
- PT (24 h): 12 s
- Plat (24 h): 127.3 x10_4/uL
- RBC (24 h): 628.2 x10_4/ul
- Ret (24 h): 6.6%
- WBC (24 h): 91.5 x10_2/uL
- KIDNEY_L (24 h): 1.1 g
- KIDNEY_R (24 h): 1.1 g
- KIDNEY_TOTAL (24 h): 2.2 g
- LIVER (24 h): 11.9 g
- A/G (24 h): 1.6
- ALP (24 h): 1068.6 IU/L
- ALT (24 h): 46.4 IU/L
- AST (24 h): 84.6 IU/L
- BUN (24 h): 15.4 mg/dL
- CRE (24 h): 0.4 mg/dL
- Ca (24 h): 10.7 mg/dL
- Cl (24 h): 103.2 meq/L
- DBIL (24 h): 0.098 mg/dL
- GLC (24 h): 191.2 mg/dL
- IP (24 h): 8.6 mg/dL
- K (24 h): 3.9 meq/L
- LDH (24 h): 193.8 IU/L
- Na (24 h): 141.4 meq/L
- PL (24 h): 135 mg/dL
- RALB (24 h): 3.4 g/dL
- TBIL (24 h): 0.2 mg/dL
- TC (24 h): 72.4 mg/dL
- TG (24 h): 84 mg/dL
- TP (24 h): 5.5 g/dL
- gamma-GTP (24 h): 1.6 IU/L
